Source: a compilation of properties of binary mixtures (doi:10.5541/ijot.303607)

Experiment: xn = mol fraction of the nth substance listed
Conditions: 101 kPa

CC(O)C(=O)[O-].[NH3+]CCO (stereo not given) + CCO
speed of sound [m/s]
Conditions	x2 = 0.0543	x2 = 0.1051	x2 = 0.206	x2 = 0.3151	x2 = 0.4144	x2 = 0.5122	x2 = 0.6116	x2 = 0.7232	x2 = 0.8109	x2 = 0.9528
288.15 K	–	1848	1792.9	1727.2	–	1590.8	1514	–	1349.2	–
290.65 K	1863.7	1839.9	–	1720.3	1654.4	1586.3	1507.4	1416	1342	1219.2
293.15 K	1855.8	1832.1	1779	1713.6	–	–	1500.8	1409.1	1334.8	1211.3
295.65 K	1848.3	1824.7	1772.2	1707	1640.9	1573.7	1494	1402.2	1327.5	1203.3
298.15 K	–	–	1765.7	1700.7	1634.4	–	1487.3	1395.3	1320.3	1195.4
300.65 K	–	–	1765.7	1700.7	1634.4	1567.3	1487.3	1395.3	–	–
303.15 K	1828	1804.4	–	–	1621.5	1555	1474.1	–	1305.9	1179.5
305.65 K	1821.7	1798.1	1747.1	1682.1	–	–	1467.5	1374.7	1298.8	1171.5
308.15 K	–	1791.9	1741.1	1676	1608.8	1542.7	1461	1367.9	1291.6	1163.6
310.65 K	1809.5	1785.8	1735.2	1670	1602.6	1536.5	1454.5	–	1284.4	–
313.15 K	–	1779.7	1729.3	1664	1596.3	1530.3	1448	1354.3	1277.3	1147.8
315.65 K	–	1773.7	1723.4	1658	1590.1	1524.2	1441.5	1347.5	1270.2	–
318.15 K	–	1767.8	1717.5	–	1583.9	1518.1	1435	1340.8	1263.1	1132.2
320.65 K	1786.1	1762	1711.8	1646	–	1511.9	1428.6	–	1256.1	1124.5
323.15 K	1780.3	1756.1	1706	1640.2	1571.5	1505.7	1422.2	1327.3	1249	–

CC(O)C(=O)[O-].[NH3+]CCO (stereo not given) + CO
speed of sound [m/s]
Conditions	x2 = 0.0675	x2 = 0.1469	x2 = 0.2586	x2 = 0.3811	x2 = 0.4275	x2 = 0.518	x2 = 0.6083	x2 = 0.7069	x2 = 0.7972	x2 = 0.8985
288.15 K	1875.8	–	1802.2	1745.7	1721.2	1666.4	1603.6	1522	–	1301.9
290.65 K	1867.4	1839.5	1795.1	–	1715	1660	1597.9	1515.5	1422	1294.8
293.15 K	–	1831.9	1788.4	–	–	1653.7	1592	1509	1415.5	1287.8
295.65 K	1852.2	1824.6	–	1727.1	–	–	1586.1	–	1409	–
298.15 K	1845.1	1817.8	1775.2	–	1697	1641.3	1580.2	–	1402.4	–
300.65 K	1838.4	1811.2	1768.8	1715.2	1690.9	–	1574.2	1489.5	1395.8	1266.1
303.15 K	1831.9	1804.9	1762.6	1709.4	1685	–	–	1483	1389.3	1258.9
305.65 K	1825.7	1798.8	1756.6	1703.5	1679	1623.2	1562.1	1476.6	1382.8	1251.8
308.15 K	1819.6	1792.9	1750.5	1697.6	1673	1617.2	1556	–	1376.2	1244.6
310.65 K	1813.6	1787	1744.5	1691.7	1667.1	1611.2	1549.9	1463.8	1369.7	1237.5
313.15 K	1807.7	1781.1	–	1685.9	1661.1	1605.2	–	1457.3	–	–
315.65 K	1801.9	1775.2	1732.6	1680	–	1599.1	1537.6	1451	1356.6	1223.2
318.15 K	1796.2	–	1726.7	1674.2	1649.2	1593.1	1531.4	1444.5	–	1216.1
320.65 K	1790.5	1763.7	1720.8	1668.4	1643.4	1587.1	1525.2	1438.2	1343.6	1209
323.15 K	–	1758	1715	1662.7	–	1581.1	1519	1431.9	1337.2	1201.9

CC(O)C(=O)[O-].[NH3+]CCO (stereo not given) + O
speed of sound [m/s]
Conditions	x1 = 0.0088	x1 = 0.0135	x2 = 0.3197	x2 = 0.5253	x2 = 0.6892	x2 = 0.9027	x2 = 0.9293	x2 = 0.949	x2 = 0.9707
288.15 K	1513.4	–	–	1897.5	–	1778.8	1727.7	1676.5	1602.1
290.65 K	1520.5	1541.4	–	1891.7	1887.8	–	1728.5	1678.8	1606.7
293.15 K	1527.1	1547.4	1882.8	1886	1882.8	1776.9	1729	1680.8	–
295.65 K	1533.2	1553	1876.5	1880.3	1877.8	–	1729.3	1682.6	1614.6
298.15 K	1539	1558.2	1870.4	–	1872.8	1774.5	1729.4	1684.1	1618.1
300.65 K	1544.3	–	1864.4	1869.1	–	–	1729.3	–	1621.3
303.15 K	1549.2	1567.4	1858.5	1863.5	1862.7	–	1729	–	1624.1
305.65 K	1553.7	–	1852.6	1858	1857.7	–	1728.6	1687.2	1626.6
308.15 K	1557.8	1575.2	–	1852.5	1852.6	1767.7	1727.9	1687.7	1628.8
310.65 K	1561.5	–	1841.1	–	1847.5	–	1727	1688	1630.8
313.15 K	1565	–	1835.4	–	1842.3	1763.4	1726	1688.1	1632.4
315.65 K	1568	1584.1	1829.7	1835.9	–	1761.1	1724.7	1687.9	–
318.15 K	1570.7	1586.5	1824	–	1831.9	1758.6	–	1687.5	–
320.65 K	–	1588.5	1818.3	1824.8	1826.7	1756	–	–	1635.6
323.15 K	1575.1	1590.1	1812.7	–	–	1753.2	1719.9	1686.1	–
